Key:
[1] = Solvate crystal growth in seeded solutions of Insecticide A in 2-heptanone/Solvent A mixtures (Example 2); format: physicochemical; conditions: seeded with Solvent A solvate crystals, 22° C., one month
Procedure: Four solutions of 2-heptanone in Solvent A were prepared by mixing 1 part by weight of 2-heptanone with 2, 4, 6 and 8 parts by weight, respectively, of solvent A. Then Insecticide A was dissolved in each of these solutions by slowly adding 4.98 parts by weight of Insecticide A to well agitated 63.92 parts by weight of the respective solution at room temperature. It typically took 1 to 3 hours for complete dissolution. After Insecticide A was fully dissolved, each of the four samples was seeded with the Solvent A solvate crystals of Insecticide A prepared in Example 1. Then the four samples were kept at 22° C. for one month and afterwards were visually inspected for solvate crystal growth.

[2] = Precipitation from a solution of Insecticide A in Solvent A on continued agitation at room temperature (Example 1, comparative); format: physicochemical
Procedure: A solution of Insecticide A (pyripyropene derivative I) in Solvent A was prepared by slowly adding 4.98 parts by weight of Insecticide A to well agitated 63.92 parts by weight of Solvent A at room temperature. It typically took 1 to 3 hours for complete dissolution depending on the addition rate of Insecticide A and on the mode of agitation. After the agitation had been continued for additional approximately 12 hours the clear solution started to turn cloudy, indicating the precipitation of Solvent A solvate crystals of Insecticide A. Microscopy analysis confirmed that the precipitation was indeed crystalline.

In the case of `C[C@]1(COC(=O)C2CC2)[C@@H]2C[C@H](O)[C@@]3(C)Oc4cc(-c5cccnc5)oc(=O)c4[C@H](O)[C@@H]3[C@@]2(C)CC[C@@H]1OC(=O)C1CC1` [Insecticide A], the “solvate crystal growth (visual inspection)” value (from here on “solvate crystal growth”) ([1]; 2-heptanone to Solvent A ratio 1:2) is reported as “no crystal growth was observed”, the “solvate crystal growth” value ([1]; 2-heptanone to Solvent A ratio 1:4) is reported as “no crystal growth was observed” and the “solvate crystal growth” value ([1]; 2-heptanone to Solvent A ratio 1:6) is reported as “crystal growth was detected”. The “solvate crystal growth” value ([1]; 2-heptanone to Solvent A ratio 1:8) was “crystal growth was detected”, the “microscopy analysis of the precipitation” value ([2]; 4.98 parts Insecticide A in 63.92 parts Solvent A) was “crystalline” and the “additional agitation time after which the clear solution started to turn cloudy (precipitation of Solvent A solvate crystals)” value ([2]; 4.98 parts by weight Insecticide A in 63.92 parts by weight Solvent A, after complete dissolution) was “approximately 12 hours”.
